# Experimental data published in ChEMBL document CHEMBL3045911, “Control of Contarinia nasturtii Keiffer (Diptera: Cecidomyiidea) by foliar sprays of acetamiprid on cauliflower transplants” (2007).
# The source made the active and inactive calls. The rule behind the calls is not given here.
# Key:
# Contarinia nasturtii [1] = assay: Pesticidal activity against Contarinia nasturtii grown on […] assessed as larval pupation applied as foliar spray 8 days post-ovipositioning relative to control; type: functional
# Contarinia nasturtii [2] = assay: Pesticidal activity against Contarinia nasturtii grown on […] assessed as larvae survival applied as foliar spray 8 days post-ovipositioning relative to control; type: functional
# Contarinia nasturtii [3] = assay: Pesticidal activity against Contarinia nasturtii grown on […] applied as foliar spray immediately post-ovipositioning relative to control; type: functional
# Contarinia nasturtii [4] = assay: Pesticidal activity against Contarinia nasturtii grown on three-leaf stage cauliflower seedling at 34 g a.i./ha applied as foliar spray 8 days post-ovipositioning measured after 10 days; type: functional
# Contarinia nasturtii [5] = assay: Pesticidal activity against Contarinia nasturtii grown on three-leaf stage cauliflower seedling at 34 g a.i./ha applied as foliar spray 4 days post-ovipositioning measured after 7 days; type: functional
# Contarinia nasturtii [6] = assay: Pesticidal activity against Contarinia nasturtii grown on three-leaf stage cauliflower seedling at 34 g a.i./ha applied as foliar spray immediately post-ovipositioning measured after 7 days; type: functional
# Contarinia nasturtii [7] = assay: Pesticidal activity against Contarinia nasturtii grown on three-leaf stage cauliflower seedling assessed as decrease in insect eggs laid per plant at 34 g a.i./ha applied as foliar spray 4 days post-ovipositioning measured after 7 days relative to control; type: functional, organism-based
# Contarinia nasturtii [8] = assay: Pesticidal activity against Contarinia nasturtii grown on three-leaf stage cauliflower seedling assessed as insect egg death at 34 g a.i./ha applied as foliar spray immediately post-ovipositioning measured after 7 days relative to control; type: functional
# Contarinia nasturtii [9] = assay: Pesticidal activity against Contarinia nasturtii grown on three-leaf stage cauliflower seedling assessed as insect egg hatching at 34 g a.i./ha applied as foliar spray immediately post-ovipositioning measured after 7 days (reference value: 100%); type: functional
# Contarinia nasturtii [10] = assay: Pesticidal activity against Contarinia nasturtii grown on three-leaf stage cauliflower seedling assessed as decrease in insect eggs laid per plant at 34 g a.i./ha applied as foliar spray immediately post-ovipositioning measured after 7 days relative to control; type: functional, organism-based
# Contarinia nasturtii [11] = assay: Pesticidal activity against Contarinia nasturtii grown on three-leaf stage cauliflower seedling at 34 g a.i./ha applied as foliar spray prior to oviposition measured after 7 days; type: functional
# Contarinia nasturtii [12] = assay: Pesticidal activity against Contarinia nasturtii grown on three-leafstage cauliflower seedling assessed as insect egg hatching at 34 g a.i./ha applied as foliar spray prior to oviposition measured after 7 days (reference value: 100%); type: functional
# Contarinia nasturtii [13] = assay: Pesticidal activity against Contarinia nasturtii grown on three-leaf stage cauliflower seedling assessed as insect egg death at 34 g a.i./ha applied as foliar spray prior to oviposition measured after 7 days; type: functional, organism-based
# Contarinia nasturtii [14] = assay: Pesticidal activity against Contarinia nasturtii grown on three-leaf stage cauliflower seedling assessed as decrease in larval feeding time at 34 g a.i./ha applied as foliar spray 8 days post-ovipositioning measured as emergence of adult insect in the soil 7 days after cutting of seedling; type: functional, organism-based
# Contarinia nasturtii [15] = assay: Pesticidal activity against Contarinia nasturtii grown on three-leaf stage cauliflower seedling assessed as decrease in mean number of larvae at 34 g a.i./ha applied as foliar spray 8 days post-ovipositioning measured on the above ground part of seedling after 10 days; type: functional, organism-based
# Contarinia nasturtii [16] = assay: Pesticidal activity against Contarinia nasturtii grown on three-leaf stage cauliflower seedling assessed as decrease in damage to seedling tips at 34 g a.i./ha applied as foliar spray 8 days post-ovipositioning measured after 10 days; type: functional, organism-based
# Contarinia nasturtii [17] = assay: Pesticidal activity against Contarinia nasturtii grown on three-leaf stage cauliflower seedling assessed as insect egg hatching at 34 g a.i./ha applied as foliar spray 8 days post-ovipositioning measured after 10 days (reference value: 100%); type: functional
# Contarinia nasturtii [18] = assay: Pesticidal activity against Contarinia nasturtii grown on three-leaf stage cauliflower seedling assessed as insect egg hatching at 34 g a.i./ha applied as foliar spray 4 days post-ovipositioning measured after 7 days (reference value: 99.73 +/- 0.27%); type: functional
# Contarinia nasturtii [19] = assay: Pesticidal activity against Contarinia nasturtii grown on three-leaf stage cauliflower seedling assessed as decrease in insect eggs laid per plant at 34 g a.i./ha applied as foliar spray prior to oviposition measured after 7 days relative to control; type: functional, organism-based
# Contarinia nasturtii [20] = assay: Pesticidal activity against Contarinia nasturtii grown on three-leaf stage cauliflower seedling assessed as mortality of insect adult at 34 g a.i./ha applied as foliar spray prior to oviposition measured after 48 hr relative to control; type: functional
# Contarinia nasturtii [21] = assay: Pesticidal activity against Contarinia nasturtii grown on three-leaf stage cauliflower seedling assessed as mortality of insect adult at 34 g a.i./ha applied as foliar spray prior to oviposition measured after 24 hr relative to control; type: functional
smiles,measurement,setting,value
C/C(=N\C#N)N(C)Cc1ccc(Cl)nc1 [ACETAMIPRID],Activity,Contarinia nasturtii [1],20%
same,Activity,Contarinia nasturtii [2],30%
same,Activity,Contarinia nasturtii [3],99.9%
same,Activity,Contarinia nasturtii [4],69.89%
same,Activity,Contarinia nasturtii [5],99.83%
same,Activity,Contarinia nasturtii [6],100%
same,Activity,Contarinia nasturtii [7],inactive
same,Activity,Contarinia nasturtii [8],100%
same,Activity,Contarinia nasturtii [9],0%
same,Activity,Contarinia nasturtii [10],inactive
same,Activity,Contarinia nasturtii [11],99.52%
same,Activity,Contarinia nasturtii [12],0.48%
same,Activity,Contarinia nasturtii [13],Active
same,Activity,Contarinia nasturtii [14],Active
same,Activity,Contarinia nasturtii [15],Active
same,Activity,Contarinia nasturtii [16],inactive
same,Activity,Contarinia nasturtii [17],100%
same,Activity,Contarinia nasturtii [18],100%
same,Activity,Contarinia nasturtii [19],Active
same,mortality at 34 g/ha,Contarinia nasturtii [20],100%
same,mortality at 34 g/ha,Contarinia nasturtii [21],84.4%
